Entries after “also recorded” stand apart in the source; their conditions may differ.
How the values were obtained:
[1] = test system: TNF-α; assay: Blast-induced TNF-α protein levels in auditory brain regions (ELISA and Western blot); format: in vivo, rat
Protocol: The therapeutic drug used was 3,6′-dithiothalidomide, which was synthesized according to a published procedure to greater than 99.8% chemical purity (Baratz et al., 2011; W. Luo et al., 2008). The drug was freshly prepared prior to each study. 3,6′-dithiothalidomide was prepared as a suspension in 1% carboxymethyl cellulose to provide a final concentration of 28 or 56 mg/kg (0.1 mL/10 g and 0.1 mL/100 g body weight injection in mice and rats, respectively), and was administered intraperitoneally (i.p.). These concentrations of 3,6′-dithiothalidomide are equimolar to 25 and 50 mg/kg of thalidomide.
Each of the rats was subjected to blast exposure in the left ear using a shock tube (ORA Inc.) located at the Wayne State University Bioengineering Center. The blast exposure of each rat was performed under anesthesia with a mixture of air (1 liter/min) and isoflurane (5% v/v). The rat was placed on supportive netting with a metal surround and secured on a pole with its head facing the oncoming shockwave. During blast exposure, the rat's right ear was occluded with a silicone earplug (Mack's; McKeon Products, Warren, Mich.), followed by application of mineral oil to seal any remaining openings. The average energy under 10 kHz measured at 22 psi was equivalent to 150 kPa or 197.5 dB SPL. After blast exposure, each rat was transferred to a polycarbonate cage.
Two exposed groups received either 56 mg/kg 3,6′-dithiothalidomide i.p. or vehicle for two days starting on the same day of the blast exposure. Another two exposed groups received 56 mg/kg 3,6′-dithiothalidomide i.p. or vehicle treatment for five days starting on the day of the blast exposure. Two more exposed groups received 56 mg/kg 3,6′-dithiothalidomide i.p. or vehicle treatment for five days starting on the fifth day after blast exposure. On the last day of the drug/vehicle injection, brain samples were collected. ELISA and Western blot was performed to determine the effects of blast and 3,6′-dithiothalidomide treatment on TNF-α protein levels.

[2] = test system: DCN, IC and AC neurons; assay: Neurophysiological recordings of DCN, IC and AC after blast exposure; format: in vivo, rat; conditions: blast-exposed rats, 56 mg/kg i.p.
Protocol: Rats were exposed or sham-exposed to a blast shockwave. To determine whether TNF-α is involved in blast-induced tinnitus, the rats were injected once daily for 5 days with 3,6′-dithiothalidomide starting 7 days after blast exposure. Behavioral testing and ABR recordings started 1 day after drug injection and lasted for three weeks.
Neurophysiological recordings of the left DCN, right IC and right AC were performed 3 weeks after drug or vehicle injection. Each rat was anesthetized with a mixture of air (1 liter/min) and isoflurane (5% v/v) and then secured in a stereotaxic frame with hollow ear bars (model 1530; David Kopf Instruments, Tujunga, Calif.). A mixture of air (1 liter/min) and isoflurane (1.75-2.5% v/v) was used to maintain anesthesia during surgery and recordings. In order to maintain the rat's body temperature at 37° C., a thermostat-controlled blanket (Harvard Apparatus, Holliston, Mass.) was used during the procedure. For electrophysiological recording, electrode arrays were inserted into the DCN, IC, and AC. Prior to insertion, the electrode probe was dipped into a 3% DiI solution (1,10-dioctadecyl-3,3,30,30-tetramethylindocarbocyanine perchlorate; Invitrogen, Carlsbad, Calif.) prepared with dimethylformamide to label the electrode insertion tracks. By using a micromanipulator (model 1460-61; David Kopf Instruments), an eight-shank, 32-channel electrode probe (NeuroNexus Technologies, Ann Arbor, Mich.) was inserted into the DCN and the probe was inserted into a depth of […] below the DCN surface, corresponding to the fusiform cell layer. For the IC, a two-shank 32-Channel (NeuroNexus) probe was inserted 20° off of the sagittal plane and 30° off of the horizontal plane through the occipital cortex into the IC. To implant in the AC, a 32 (4×8) microwire array was implanted 2.7 to 5.8 mm posterior to the bregma, and ˜0.8-1.0 mm from the cortical surface. After probe placement, the brain was covered with agarose to avoid tissue swelling and drying. The probe connector was connected to a real-time signal processing system (RZ2, TDT) with a 25 kHz sampling rate and a 100-3000 Hz bandpass filter. Spontaneous activity, frequency tuning curves (FTCs), and acoustic stimulation with tone and noise bursts (BBN) was recorded. Spontaneous single- and multi-unit spikes were recorded twice; one 5 min prior to and one 5 min after frequency tuning curve (FTC) construction. Each spontaneous recording period lasted 5 min. FTCs were obtained to determine the frequency representation of each implanted electrode in the DCN, IC and AC using tone sweeps (50 ms in duration, 2-44 kHz, incremental steps of 2 dB, sound level range of 0-85 dB SPL).

[3] = test system: C75BL6 mice; assay: Noise-induced tinnitus, gap detection, 3,6′-dithiothalidomide; format: in vivo, mouse
Protocol: Tinnitus was assessed using the gap detection paradigm.
A group of C75BL6 mice underwent 4 days of gap detection testing. On the fifth day, the mice were exposed to 123-dB noise in their left ears for two hours, which was followed immediately by the administration of 3,6′-dithiothalidomide at a dose of 28 mg/kg. The drug was administered daily for five days. On day 10 post noise exposure, gap detection tests were resumed to test the animals' performance. Impaired gap detection compared to prenoise exposure performance is behavioral evidence of tinnitus.

[4] = test system: Pyramidal neurons; assay: Patch clamp mIPSC and mEPSC in brain slices after noise exposure; format: in vivo, mouse
Protocol: Three groups of C75BL6 mice were used. Two were exposed to 123-dB noise in the left ear for two hours. Animals in one of the two exposed group were administered 3,6′-dithiothalidomide. The drug was administered daily for five days. The remaining third group underwent the same procedure but without noise exposure or drug administration. On day 10 post-noise exposure, animals were euthanized and brain slices were prepared. Pyramidal neurons in the brain slices were recorded as described above. Miniature inhibitory and excitatory synaptic transmissions (mIPSC and mEPSC) were examined.

O=C1NC(=S)CCC1N1C(=O)c2ccccc2C1=S (centres unmarked) [3,6′-dithiothalidomide]
TNF-α protein levels in AC, ELISA ([1]; blast-exposed rat AC, 56 mg/kg i.p., FIG. 10): reduced TNF-α protein levels | TNF-α protein levels in DCN, ELISA ([1]; blast-exposed rat DCN, 56 mg/kg i.p., FIG. 11): reduced TNF-α protein levels | TNF-α protein levels in IC, ELISA ([1]; blast-exposed rat IC, 56 mg/kg i.p., FIG. 12): reduced TNF-α protein levels | statistical significance of the reduction of TNF-α protein levels in IC ([1]; blast-exposed rat IC, FIG. 12): did not achieve statistical significance | translational/posttranslational increase in the TNF-α protein level ([1]; blast-exposed rats): cannot block such an increase | reduction in TNF-α protein levels in DCN vs corresponding vehicle group ([1]; group treated five days starting on the day of blast (5 Days), P<0.05): statistical significance | reduction in TNF-α protein levels in AC vs corresponding vehicle group ([1]; group treated five days starting on the fifth day after blast (10 Days), P<0.05): statistical significance | statistical significance of the reduction of TNF-α protein levels in AC and DCN ([1]; rat AC and DCN, vs vehicle, P<0.05): reached statistical significance; also recorded: significant reduction | TNF-α protein levels after blast exposure ([1]; rat AI, DCN and IC, 56 mg/kg i.p., 2, 5 and 10 days after blast, FIGS. 10-13): partially reduced TNF-α protein levels | neuronal firing synchrony (correlogram ratio) ([2]; DCN, IC and AC, FIGS. 22A-22C): significantly reduced neuronal firing synchrony | spontaneous bursting rate in the DCN ([2]; FIG. 20A): reduced bursting rates in blast-exposed animals to the control level | spontaneous firing rate in the DCN ([2]; FIG. 20B): reduced firing rates in blast-exposed animals to the control level | spontaneous bursting rate in the AC ([2]; FIG. 21A): reduced bursting rates in blast-exposed animals relative to vehicle | spontaneous firing rate in the AC ([2]; FIG. 21B): reduced firing rates in blast-exposed animals to the control level | noise-induced tinnitus (startle-response ratio) ([3]; 28 mg/kg, FIG. 25): prevents noise-induced tinnitus in mice | gap detection performance after noise exposure ([3]; 123-dB noise 2 h, 28 mg/kg daily for five days, tested day 10 post exposure): not significantly altered | mIPSC frequency (noise-induced reduction) ([4]; mice, 123-dB noise 2 h, 28 mg/kg daily for five days, day 10, FIG. 26A, 28 mg/kg): completely reversed; also recorded: rescues the reduction in mIPSC frequency | mIPSC amplitude (noise-induced reduction) ([4]; mice, 123-dB noise 2 h, 28 mg/kg, FIG. 26B): rescues the reduction in mIPSC amplitude | mEPSC frequency ([4]; noise-exposed treated mice relative to control mice, FIG. 26C): no effect | mEPSC amplitude ([4]; noise-exposed treated mice relative to control mice, FIG. 26D): no significant effect

From US20180021315A1, “METHODS OF TREATING HEARING DISORDERS” (Wayne State University, priority 2016, published 2018)
